Test results published in US12247037B2, “1-(2,6-diazaspiro[3.3]heptan-6-yl)-5,6-dihydro-4h-benzo[f][1,2,4]triazolo[4,3-A][1,4]diazepine derivatives and related compounds as vasopressin antagonists for the treatment of neuro-psychological disorders” (Neumora Therapeutics, Inc., priority 2018, dated 2025).
Where two headings read alike, the source gives them in different places.

Experiments:
[1] = tested on: MDR1 (P-glycoprotein); assay: in vitro; details: dog, MDCK-MDR1
[2] = biological target: T1, human Arginine Vasopressin Receptor 1a (AVPR1a) (Homo sapiens, UniProt P37288); assay: Vasopressin V1a receptor antagonist assay (FLIPR calcium, CHO-AVPR1a cells); type: cell-based
T1 construct: expressed in transfected cells; host or cells: CHO (Chinese Hamster Ovary) cells, kept under G418 selection
T1 sequence (P37288 whole entry): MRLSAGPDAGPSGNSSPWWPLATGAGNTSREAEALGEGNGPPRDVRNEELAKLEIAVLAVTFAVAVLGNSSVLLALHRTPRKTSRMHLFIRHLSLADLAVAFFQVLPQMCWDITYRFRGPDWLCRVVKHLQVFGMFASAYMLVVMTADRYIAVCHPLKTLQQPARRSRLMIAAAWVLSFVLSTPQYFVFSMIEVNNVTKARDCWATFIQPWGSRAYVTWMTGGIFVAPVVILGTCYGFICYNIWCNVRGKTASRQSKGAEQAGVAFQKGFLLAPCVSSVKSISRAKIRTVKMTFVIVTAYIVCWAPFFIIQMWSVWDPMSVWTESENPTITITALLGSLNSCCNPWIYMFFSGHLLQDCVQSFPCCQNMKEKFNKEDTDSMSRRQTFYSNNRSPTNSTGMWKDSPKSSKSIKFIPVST

[3] = biological target: T2, human Arginine Vasopressin Receptor V2 (AVPR2) (Homo sapiens, UniProt P30518); assay: Vasopressin V2 receptor antagonist assay (TR-FRET cAMP, 1321N1 cells); type: cell-based
T2 construct: host or cells: 1321N1 cells (cAMPZen V2 assay ready cells)
T2 sequence (P30518 whole entry): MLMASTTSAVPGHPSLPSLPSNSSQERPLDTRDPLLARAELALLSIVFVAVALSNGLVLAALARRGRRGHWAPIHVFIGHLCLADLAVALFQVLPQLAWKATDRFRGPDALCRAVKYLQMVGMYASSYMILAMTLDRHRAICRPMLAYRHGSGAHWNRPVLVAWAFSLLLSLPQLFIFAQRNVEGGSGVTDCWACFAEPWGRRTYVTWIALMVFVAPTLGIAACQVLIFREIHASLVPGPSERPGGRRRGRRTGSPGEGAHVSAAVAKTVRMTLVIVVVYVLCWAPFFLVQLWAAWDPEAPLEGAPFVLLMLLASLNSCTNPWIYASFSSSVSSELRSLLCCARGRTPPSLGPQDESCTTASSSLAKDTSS

[4] = in vitro; details: dog, MDCK
[5] = biological target: T3, human Oxytocin Receptor (hOTR) (Homo sapiens, UniProt P30559); assay: Oxytocin receptor antagonist assay (FLIPR calcium, CHEM-1-hOTR cells); type: cell-based; details: antagonism of oxytocin (EC80) response; read-out: OT IC50
T3 construct: host or cells: CHEM-1 cells (ready-to-assay frozen cells)
T3 sequence (P30559 1-389): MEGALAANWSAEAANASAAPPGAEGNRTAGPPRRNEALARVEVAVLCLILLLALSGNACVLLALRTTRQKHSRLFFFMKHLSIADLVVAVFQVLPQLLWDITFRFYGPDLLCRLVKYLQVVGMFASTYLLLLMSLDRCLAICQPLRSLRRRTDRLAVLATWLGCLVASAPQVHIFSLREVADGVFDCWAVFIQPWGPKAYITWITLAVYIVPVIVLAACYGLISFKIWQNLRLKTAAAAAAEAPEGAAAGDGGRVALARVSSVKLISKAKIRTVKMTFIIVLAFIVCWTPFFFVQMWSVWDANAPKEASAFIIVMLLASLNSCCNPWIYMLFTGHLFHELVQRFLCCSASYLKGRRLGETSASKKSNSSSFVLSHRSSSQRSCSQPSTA
Description: This assay is performed in CHEM-1 cells expressing the human Oxytocin Receptor (hOTR) to determine the inhibitory effect of the compounds of the invention on the human Oxytocin receptor. Oxytocin evokes an increase in intracellular calcium in CHEM-1-hOTR cells which is measured in a fluorescence assay on the FLIPR^TETRA using calcium sensitive dyes. Test compounds are assessed for their ability to affect the magnitude of the response to oxytocin, with antagonists showing a concentration-dependent reduction in the oxytocin-mediated fluorescence.
CHEM-1-hOTR ready is used to assay frozen cells (Eurofins #HTS090RTA) which are supplied with a proprietary Media Component.
Day 1 of the assay: Cells are thawed in a 37° C. water bath and diluted with the supplied Media Component to a final volume of 10 ml. The cell suspension is centrifuged at 1000 rpm for 3 min at room temperature and the supernatant is discarded. […]
Day 2: At the start of each assay day the potency of oxytocin is assessed and an EC80 concentration is determined for subsequent compound profiling. […] Changes in fluorescence are monitored for 3 min after both additions on the FLIPR^TETRA using 470-495 nm excitation and 515-575 nm emission wavelengths. […] At the end of the incubation period 10 μl of oxytocin in assay buffer containing 0.1% BSA is added at the previously determined EC80 concentration. […]

[6] = biological target: T4, human Arginine Vasopressin Receptor 1b (AVPR1b) (Homo sapiens, UniProt P47901); assay: Vasopressin V1b receptor antagonist assay (FLIPR calcium, CHO-AVPR1b cells); type: cell-based; details: antagonism of AVP (EC80) response
T4 construct: expressed in transfected cells; host or cells: CHO (Chinese Hamster Ovary) cells, kept under G418 selection
T4 sequence (P47901 1-424): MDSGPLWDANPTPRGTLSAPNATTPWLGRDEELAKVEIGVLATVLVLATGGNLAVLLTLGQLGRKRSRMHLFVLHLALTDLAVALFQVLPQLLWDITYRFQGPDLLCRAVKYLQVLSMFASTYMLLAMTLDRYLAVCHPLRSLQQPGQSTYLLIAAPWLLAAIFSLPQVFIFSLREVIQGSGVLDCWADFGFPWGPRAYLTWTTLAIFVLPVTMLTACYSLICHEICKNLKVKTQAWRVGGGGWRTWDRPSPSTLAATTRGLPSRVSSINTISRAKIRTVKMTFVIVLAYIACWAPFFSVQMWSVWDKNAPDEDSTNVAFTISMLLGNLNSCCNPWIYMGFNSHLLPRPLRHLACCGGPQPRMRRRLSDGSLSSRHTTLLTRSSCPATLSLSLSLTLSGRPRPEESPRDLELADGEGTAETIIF
Description: The purpose of the assay is to determine the inhibitory effect of synthesized compounds on the Vasopressin V1b receptor. The assay is performed in Chinese Hamster Ovary (CHO) cells expressing the human Arginine Vasopressin Receptor 1b (AVPR1b). Arginine Vasopressin (AVP) evokes an increase in intracellular calcium in CHO-AVPR1b cells which is measured in a fluorescence assay on the FLIPR^TETRA using calcium sensitive dyes. Test compounds are assessed for their ability to affect the magnitude of the response to AVP, with antagonists showing a concentration-dependent reduction in the AVP-mediated fluorescence.
CHO-AVPR1b cells are maintained in routine culture in T175 Flasks at 37° C., 5% CO2. […]
Cells are harvested from T175 flasks when they are 80-90% confluent by first washing the cell monolayer with PBS and then dissociated using trypsin 0.05%/EDTA (3 mL for a T175 Flask). […] To the cell suspension, 10 ml of growth media is added and the cell density determined using the Vi-Cell automated cell counter. […]
At the start of each assay day, the potency of AVP is assessed and an EC80 concentration determined for subsequent compound profiling. […] Changes in fluorescence are monitored for 3 min after both additions on the FLIPR^TETRA using 470-495 nm excitation and 515-575 nm emission wavelengths. […]

| Papp A→B [4] [×10⁻⁶ cm/s] | IC50 ([2]; antagonism of AVP (EC80) response, read-out: V1a IC50) [nM] | IC50 [5] [nM] | IC50 [6] [nM] | Structure (SMILES) | Papp A→B [1] [×10⁻⁶ cm/s] | IC50 [2] [nM] | IC50 [3] [nM] |
| --- | --- | --- | --- | --- | --- | --- | --- |
| – | – | – | – | Clc1ccc2c(c1)CN(C1CC1)Cc1nnc(N3CC4(CN(c5ncccn5)C4)C3)n1-2 [Compound No. 225, 8-chloro-5-cyclopropyl-1-(6-(pyrimidin-2-yl)-2,6-diazaspiro[3.3]heptan-2-yl)-5,6-dihydro-4H-benzo[f][1,2,4]triazolo[4,3-a][1,4]diazepine] | > 20 | < 100 | > 1000 |
| 10 to 20 | < 100 | > 1000 | > 1000 | CN1Cc2cc(Cl)ccc2-n2c(nnc2[C@H]2CC[C@H](Oc3ccccn3)CC2)C1 [balovaptan] | > 20 | – | – |
